Measurements taken from patent publication US5494893A, “Stylostatin 2” (Arizona Board of Regents, a body corporate acting on behalf …, priority 1994, dated 1996).
≈ marks a conversion by molar mass, not a printed value. Where a SMILES comes first, the peptide text is derived from it.

How the values were obtained:
[1] = test system: U.S. National Cancer Institute panel of 60 human cancer cell lines; assay: NCI panel of 60 human cancer cell lines, growth inhibition; type: cell-based; conditions: NCI 60 cell line panel, quadruplicate tests, average over panel, 48 hours; read-out: overall panel-averaged GI50 concentration
Text: (§1) Current research in the control of cancer in the United States is coordinated by the National Cancer Institute (NCI). To determine whether a substance has anti-cancer properties, the NCI has established a systematic protocol. This protocol, which involves the testing of a substance against a standard cell line panel containing 60 human tumor cell lines, has been verified and has been accepted in scientific circles. The protocol, and the established statistical means for analyzing the results obtained by the standardized testing are fully described in the literature. See: Boyd, Dr. Michael R., Principles & Practice of Oncology, PPO Updates, Volume 3, Number 10, Oct. […]
(§2) Each drug is tested at five (5) doses: 100--10--1--0.1--0.01 μg/ml. Percent Growths are calculated for each dose. […]
(§3) At the start of an experiment, cells from the in vitro cell cultures are inoculated into the appropriate tubes or microtiter plates. One set of control tubes/plates is immediately counted to determine the number of cells at the start of the experiment. This is the "baseline count", or "Tzero reading". At the end of the experiment (48 hours later), a second set of control tubes/plates is analyzed to determine the "Control Growth" value. The growth (or death) of cells relative to the initial quantity of cells is used to define the "Percent of Growth".

OVCAR 3 = OVCAR 3 human cancer cell growth inhibition; type: cell-based; conditions: OVCAR 3 cell line
Text: as §1, §2, §3

[2] = test system: murine P388 lymphocytic leukemia (PS system) cell line; conditions: earlier reported work (J. Org. Chem. 1992); cited from earlier work

Row | Compound | GI50 [1] | GI50 (OVCAR 3) | P388 (PS system) cell line inhibition [2]
1 | CC[C@H](C)[C@@H]1NC(=O)[C@H](CC(C)C)NC(=O)[C@@H]2CCCN2C(=O)[C@H]([C@@H](C)CC)NC(=O)[C@@H]2CCCN2C(=O)[C@H](CO)NC(=O)[C@H](Cc2ccccc2)NC1=O [stylostatin 2, cyclo (Pro-Leu-Ile-Phe-Ser-Pro-Ile)] (cyclo(FSPIPLI)) | 6.2 µM | 3.7 mg/L (≈ 4.82 µM) | 
2 | cyclo (Pro-Phe-Asn-Ser-Leu-Ala-Ile) (PFNSLAI; head-to-tail cyclic; printed: Pro-Phe-Asn-Ser-Leu-Ala-Ile) [stylostatin 1, cycloheptapeptide earlier isolated from the same Stylotella sp. sponge] |  |  | inhibitor
